Measured values from patent publication US7319090B2, “Methods of treating cerebral ischemia” (University of North Carolina at Chapel Hill, priority 2002, dated 2008).
Where a SMILES comes first, the peptide text is derived from it. Where no end group is shown, it is not given here. [ ]: non-standard residue; d: D form. Ala(indol-4-yl) = N[C@@H](Cc1cccc2[nH]ccc12)C(=O)O; NMeR = CN[C@@H](CCCNC(=N)N)C(=O)O; Tle = CC(C)(C)[C@H](N)C(=O)O; dOrn = NCCC[C@@H](N)C(=O)O; neo‑Trp = not defined here

Columns and labels:
Format in all cases: in vivo, rat
[1] = system: Sprague-Dawley rats resuscitated from asphyxial cardiac arrest
From the text: Sixteen male Sprague-Dawley rats (Harlan; Madison, Wis.) weighing 300±50 grams were randomized to a control group (saline) or treatment group (NT69L) after resuscitation from asphyxial cardiac arrest. The outcome model of asphyxial cardiac arrest in rats was used to induce the cerebral insult in all rats (Katz et al., Outcome model of asphyxial cardiac arrest in rats, J. Cereb. Blood Flow Metab., 1995, 15:1032-1039). Under titrated inhaled isoflurane anesthesia, brain telemetric probes (Mini-Mitter; Sunriver, Oreg.) were implanted three days before the cerebral insult. […] On the day of the cerebral insult, rats were again anesthetized with inhaled isoflurane anesthesia, intubated, and mechanically ventilated. A tail artery was cannulated for continuous blood pressure monitoring and blood gas analysis, while the jugular vein was cannulated for intravenous drug administration. Intravenous vecuronium (2 mg/kg intravenous) and cessation of mechanical ventilation were used to induce apneic asphyxia. Asphyxia led to cardiac arrest (i.e., mean arterial pressure (MAP)<10 mm Hg and a pulse pressure of 0 mm Hg) within approximately 3 minutes; the cardiac arrest was maintained until resuscitation. Eight minutes after asphyxia, the rats were resuscitated with mechanical ventilation (100% oxygen), 0.005 mg/kg intravenous epinephrine, and chest compressions until a mean arterial pressure of 60 mm Hg was produced and maintained by a spontaneously beating heart for more than 10 seconds. Immediately after restoration of spontaneous circulation (ROSC), the rats were placed in an incubator that maintained an ambient temperature of 31.6° C. […] Ten minutes after ROSC, NT69L (0.5 mg/kg) […] or saline 3 mL/kg was administered intravenously. The ventilator was adjusted to normalize temperature-corrected arterial carbon dioxide before the insult and for two hours after ROSC. Two hours after ROSC, spontaneously breathing rats were extubated and maintained in the incubator for 24 hours. Rats were handled daily after the experiment and had free access to food and water.
(§1) Physiological variables (arterial blood gas, glucose, and MAP) between groups were compared by a one-way analysis of variance (ANOVA). All values were reported as means±standard deviation unless otherwise stated. A one-way analysis of variance (ANOVA) was used to determine the between-group differences in latency time for finding the platform during the MWM on day 14. When an overall significant difference was found, a Tukey post-hoc analysis was used to determine specific between-group differences. Performances on the MWM (learning curve) between days 10 and 14 were compared between groups by a repeated measure ANOVA. Neurological deficit scores between groups were assessed by Kruskal-Wallis analysis. For all analyses, alpha was set at a p<0.05 level of significance.

[2] = system: Sprague-Dawley rats resuscitated from asphyxial cardiac arrest; experiment: Morris Water Maze on days 10-14 after ROSC (NT69L)
Protocol: On days 10-14 after ROSC, the rats were accessed for performance in a Morris Water Maze (MWM). Evaluation was begun on day 10 to ensure that there was complete recovery from anesthesia and the surgical procedures based on prior pilot studies (data not shown). A six foot diameter round pool was filled with water (26° C.) to a depth of 20 cm, 1 cm above an 11-cm diameter clear glass escape platform. The escape platform was invisible to a swimming rat and was placed in the northeast quadrant of the pool. The pool had large visible and distinct geometric shapes placed in a north, south, east, and west distribution on the side of the pool wall so that a swimming rat could easily visualize the orientation markers. The pool was situated in a room with black walls and ceiling to minimize external distractions for the rats. Rats were initially placed in the pool (without the escape platform) for 2 minutes to become acclimatized to the new swimming environment. The rats were then placed on the escape platform for 30 seconds to allow for self orientation in the pool. Next, the rats were randomly placed in each of the four geographic outer regions of the pool and their travel path, swim speed, and time required to locate the hidden platform (latency time) were recorded. Rats performed four swim trials on each day with a maximum swim time of 2 minutes, at which time the trial was terminated if a rat was unable to locate the platform. A 3-minute rest period was provided between trials. In addition to the rats that sustained cardiac arrest (n=16), nine sham rats were surgically instrumented and allowed to recover for ten days before being assessed for performance in the MWM.
as §1

[3] = system: Sprague-Dawley rats resuscitated from asphyxial cardiac arrest; experiment: Neurological deficit score 14 days after ROSC (NT69L)
Protocol: A final neurological deficit score (NDS) was performed 14 days after ROSC by an evaluator blinded to the insult and therapeutic intervention. Rats were tested for coordination (balance beam walk placing test, depth perception, righting reflex) and for motor and sensory function as described in Katz et al., Outcome model of asphyxial cardiac arrest in rats, J. Cereb. Blood Flow Metab., 1995, 15:1032-1039. The NDS includes a range from 0 (indicating normal) to 100 (indicating brain dead).
as §1

[4] = system: free-roaming, unanesthetized rats; experiment: Pilot: brain temperature of free-roaming unanesthetized rats without cardiac arrest given NT69L; conditions: no cardiac arrest, room temperature 23° C., i.v.
Protocol: In separate pilot experiments, four rats were instrumented for placement of temperature probes and intravenous catheters as described above. Three days after recovery from anesthesia, NT69L was administered intravenously to two free-roaming, unanesthetized rats at room temperature (23° C.). In the same environment and at the same time, two rats were given a similar volume of saline for comparison.

Sprague-Dawley rats [5] = experiment: Behavioral thermoregulation in a temperature gradient (selected Ta, core temperature, motor activity) after NT77
Protocol: Male rats of the Sprague-Dawley strain at 60 days of age were obtained from Charles River Laboratories (Raleigh, N.C.). The animals were housed individually in acrylic cages lined with wood shavings at an ambient temperature (Ta) of 22° C., relative humidity of 50%, and a 12 hour light:12 hour dark photoperiod (lights were turned on at 6 a.m. and turned off at 6 p.m.). Core temperature and motor activity were monitored in undisturbed rats using radio telemetry (Data Sciences International, St. Paul, Minn.). Details of the telemetry system are described in Gordon, C. J., 24-hour control of body temperature in the rat: I. Integration of behavioral and autonomic effectors, Am. J. Physiol. 267, […]-[…], 1994. Briefly, rats were anesthetized with sodium pentobarbital (50 mg/kg; intraperitoneally) and an incision was made for the implantation of the transmitter (TAIOTA-F40) into the abdominal cavity. The abdominal muscle was sutured and the skin was closed with wound clips. […] The behavioral thermoregulatory response to NT77 was assessed by measuring selected ambient temperature (Selected Ta) of the unrestrained rats when housed in a temperature gradient (Gordon, C. J., 24-hour control of body temperature in the rat: I. Integration of behavioral and autonomic effectors, Am. J. Physiol. 267, […]-[…], 1994). Rats were placed in a temperature gradient and allowed to behaviorally select from a range of ambient temperatures (Ta) while core temperature (Tc) was monitored by radiotelemetry. Selected Ta, core temperature (Tc), and motor activity were monitored at 1 minute intervals. […] Selected Ta was measured by photocells positioned at 10 cm intervals that detected the position of the rat in the gradient and automatically compared the position to the air temperature measured by thermocouples placed immediately outside the wire-mesh cage. Motor activity was calculated by measuring the change in position of the rat in the gradient at 1 minute intervals. […] The behavioral and core temperature data were recorded at 1 minute intervals throughout the experiment. […]

Sprague-Dawley rats [6] = experiment: Metabolism and heat loss in a direct calorimeter after NT77; conditions: 5.0 mg/kg i.p.; data not shown
Protocol: Oxygen consumption and dry heat loss were measured in naive rats implanted with radiotransmitters and housed in a direct calorimeter. The internal dimensions of the calorimeter were 30.5 cm×30.5 cm×30.5 cm. The calorimeter was used to measure the rate of dry heat loss (i.e., thermal conductance) from the rats using thermoelectric sensors in the calorimeter walls. The calorimeter was housed inside a temperature-controlled chamber maintained at 23.5° C. The inside of the calorimeter was dimly illuminated with LED lights (total power=0.2 Watts). […]
A mass flow controller was used to meter dry air at a constant flow rate (2.7 liters/minute; STP) into the calorimeter. […] Percent oxygen, dry heat loss, air flow rate, and calorimeter temperature were monitored at 1 minute intervals by a data acquisition system (Dianachart PC acquisitor). […] (W/C) was calculated by dividing the value of dry heat loss at 1 minute intervals by the difference between core and ambient temperature. […]
A naive rat was placed in the wire-mesh cage which was then placed inside the calorimeter at approximately 9 a.m. […] After 115 minutes, the percent oxygen of the inflowing air was measured for another 5 minutes for calibration purposes but the rat was not disturbed. […]

[7] = NT69L 0.5 mg/kg i.v., ambient 31.6° C.
[8] = intravenously after resuscitation from cardiac arrest
[9] = one NT69L group rat, day 14 after resuscitation

Compound	duration of mild hypothermia (mean) ([1]; NT69L 0.5 mg/kg i.v.) [min]	duration of mild hypothermia (median) ([1]; NT69L 0.5 mg/kg i.v.) [min]	duration of mild hypothermia (range) ([1]; NT69L 0.5 mg/kg i.v.) [min]	time until brain temperature dropped below 35° C. after administration (mean) [1, 7]	time until brain temperature dropped below 35° C. after administration (range) [1, 7] [min]	rats with ROSC that survived 14 days ([1]; each group, same as control)	hypothermia produced (conclusion) [1, 8]	hypotension produced ([1]; rat, in vivo)	latency time in Morris Water Maze ([2]; fourteen days after ROSC, control 45±26, sham 10±3) [s]	distance traveled, sample path of one rat (FIG. 1) [2, 9] [cm]	latency time, sample path of one rat (FIG. 1) [2, 9] [s]	rates of change of latency time over days 10-14 versus control ([2]; p=0.15 repeated-measures ANOVA)	swimming speed during MWM testing ([2]; sham 27±2, control 25±1) [cm/s]	neurological deficit score (NDS) ([3]; 14 days after ROSC, 0 normal to 100 brain dead, control 30±10)	neurological outcome (conclusion) [3, 8]	brain temperature versus saline rats [4]	effect on motor activity (Sprague-Dawley rats [5]; 5.0 mg/kg i.p., temperature gradient)	core temperatures and selected Ta's during the night after treatment (Sprague-Dawley rats [5]; 5.0 mg/kg i.p., data not shown)	loss of initial body weight (Sprague-Dawley rats [5]; day after treatment, saline 1.6%) [%]	effect on motor activity in the calorimeter (Sprague-Dawley rats [6])
NT69L: neurotensin analog, SEQ ID NO: 16, positions 8-13: N-methyl-Arg, L-Lys, L-Pro, L-neo-Trp, tert-Leu, L-Leu ([NMeR]KP[neo‑Trp][Tle]L; reading uncertain)	300 ± 100	367	20 to 400	13+3 minutes	8 to 15	Seven out of eight	rapid and prolonged mild hypothermia	mild and transient	22 ± 8	225	9	no difference	26 ± 1	3±3	improved neurological outcome	drop in brain temperature	–	–	–	–
CC(C)C[C@H](NC(=O)[C@@H](NC(=O)[C@H](Cc1cccc2[nH]ccc12)NC(=O)[C@@H]1CCCN1C(=O)[C@@H](CCCN)NC(=O)[C@@H](N)CCCNC(=N)N)C(C)(C)C)C(=O)O [NT77] (H-R[dOrn]P[Ala(indol-4-yl)][Tle]L-OH)	–	–	–	–	–	–	–	–	–	–	–	–	–	–	–	–	no effect	normal	2.4	no discernable effect
